Laboratory results taken from PubChem BioAssay AID2060612 (Molecular Pharmacology Branch, DTP, NCI, 2025).
“And” between values parts separate entries of the source, which are not always exact repeats. Equal entries are not always repeated.

System: 565232-114-T-J1-PDC complex spheroid viability
Assay: Anticancer human tumor 565232-114-T-J1-PDC patient-derived bladder carcinoma cell line growth inhibition [CLK]
Details: for viability, T/C: stronger effect = lower value
In short: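 Multi-cell-type spheroids combined patient-derived tumor cells with HUVEC endothelial cells and human mesenchymal stem cells. Paired agents were dosed in half-log steps down from about clinical Cmax, or from 10 microM where Cmax was unknown.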

[1] = curve of first compound, second compound 0.0316 µM
[2] = curve of first compound, second compound 0.1 µM
[3] = curve of first compound, second compound 0.316 µM
[4] = curve of first compound, second compound 1 µM
[5] = curve of first compound, second compound 3.16 µM
[6] = curve of first compound, second compound 10 µM
[7] = second compound 0.0316 µM, first compound 0.0316 µM
[8] = second compound 0.0316 µM, first compound 0.1 µM
[9] = second compound 0.0316 µM, first compound 0.316 µM
[10] = second compound 0.0316 µM, first compound 1 µM
[11] = second compound 0.0316 µM, first compound 3.16 µM
[12] = second compound 0.0316 µM, first compound 10 µM
[13] = second compound 0.1 µM, first compound 0.0316 µM
[14] = second compound 0.1 µM, first compound 0.1 µM
[15] = second compound 0.1 µM, first compound 0.316 µM
[16] = second compound 0.1 µM, first compound 1 µM
[17] = second compound 0.1 µM, first compound 3.16 µM
[18] = second compound 0.1 µM, first compound 10 µM
[19] = second compound 0.316 µM, first compound 0.0316 µM
[20] = second compound 0.316 µM, first compound 0.1 µM
[21] = second compound 0.316 µM, first compound 0.316 µM
[22] = second compound 0.316 µM, first compound 1 µM
[23] = second compound 0.316 µM, first compound 3.16 µM
[24] = second compound 0.316 µM, first compound 10 µM
[25] = second compound 1 µM, first compound 0.0316 µM
[26] = second compound 1 µM, first compound 0.1 µM
[27] = second compound 1 µM, first compound 0.316 µM
[28] = second compound 1 µM, first compound 1 µM
[29] = second compound 1 µM, first compound 3.16 µM
[30] = second compound 1 µM, first compound 10 µM
[31] = second compound 3.16 µM, first compound 0.0316 µM
[32] = second compound 3.16 µM, first compound 0.1 µM
[33] = second compound 3.16 µM, first compound 0.316 µM
[34] = second compound 3.16 µM, first compound 1 µM
[35] = second compound 3.16 µM, first compound 3.16 µM
[36] = second compound 3.16 µM, first compound 10 µM
[37] = second compound 10 µM, first compound 0.0316 µM
[38] = second compound 10 µM, first compound 0.1 µM
[39] = second compound 10 µM, first compound 0.316 µM
[40] = second compound 10 µM, first compound 1 µM
[41] = second compound 10 µM, first compound 3.16 µM
[42] = second compound 10 µM, first compound 10 µM
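Also: spheroids exposed to compounds for 7 days before readout.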
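For viability, T/C in this document: 100% = DMSO vehicle wells with luminescence normalized to vehicle control.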

With `CC1COCCN1c1cc(C2(S(C)(=N)=O)CC2)nc(-c2ccnc3[nH]ccc23)n1` (stereo unspecified) + CNC(=O)c1ccc(Nc2nc(OC3CCCC3)c3c(-c4ccc5nc(C)oc5c4)c[nH]c3n2)c(OC)c1 the IC50 [1] was 6350 nM, the IC50 [2] was 222 nM and the IC50 [3] was under 31.6 nM. It also gave an IC50 [4] of under 31.6 nM, an IC50 [5] of under 31.6 nM and an IC50 [6] of under 31.6 nM. For the same compound, the viability, T/C [7] was 95.2%, the viability, T/C [8] was 85.1% and the viability, T/C [9] was 93.2%. It also gave a viability, T/C [10] of 79.4%, a viability, T/C [11] of 103% and a viability, T/C [12] of 23.2%. It also gave a viability, T/C [13] of 55.6%, a viability, T/C [14] of 57% and a viability, T/C [15] of 42%. The viability, T/C [16] was 44.2%, the viability, T/C [17] was 30.2% and the viability, T/C [18] was 11.5%. The viability, T/C [19] was 31.4%, the viability, T/C [20] was 38.3% and the viability, T/C [21] was 35.7%. For the same compound, the viability, T/C [22] was 28.6%, the viability, T/C [23] was 22% and the viability, T/C [24] was 9.67%. The viability, T/C [25] was 24.7%, the viability, T/C [26] was 25.2% and the viability, T/C [27] was 25.9%. For the same compound, the viability, T/C [28] was 23.8%, the viability, T/C [29] was 11.1% and the viability, T/C [30] was 4.92%. It also gave a viability, T/C [31] of 19.1%, a viability, T/C [32] of 17.4% and a viability, T/C [33] of 17.4%. The viability, T/C [34] was 13.3%, the viability, T/C [35] was 11.2% and the viability, T/C [36] was 2.86%. It also gave a viability, T/C [37] of 19%, a viability, T/C [38] of 21.1% and a viability, T/C [39] of 20.5%. For the same compound, the viability, T/C [40] was 15.5%, the viability, T/C [41] was 6.6% and the viability, T/C [42] was 1.53%.

In the case of `COc1cccc2c1C(=O)c1c(O)c3c(c(O)c1C2=O)CC(O)(C(=O)CO)CC3OC1CC(N)C(O)C(C)O1` (stereo unspecified), the viability, T/C (compound 0.0316 µM) is reported as 93.4% and 109%, the viability, T/C (compound 0.1 µM) is reported as 85.3% and 45.3% and the viability, T/C (compound 0.316 µM) is reported as 78.4% and 15.7%. For the same compound, the viability, T/C (compound 1 µM) was 16.1% and 0.8%, the viability, T/C (compound 3.16 µM) was 0.18% and 0.27% and the viability, T/C (compound 10 µM) was 0.14% and 0.26%. The IC50 (curve of compound) was 533 nM and 92.5 nM.

`C=C(F)C(=O)N1CCN(c2nc(OCC3CCCN3C)nc3c2CCN(c2cccc4cccc(Cl)c24)C3)CC1CC#N` (stereo unspecified) + CNC(=O)c1ccc(Nc2nc(OC3CCCC3)c3c(-c4ccc5nc(C)oc5c4)c[nH]c3n2)c(OC)c1 was tested, and the IC50 [1] was 5870 nM, the IC50 [2] was 3910 nM and the IC50 [3] was under 31.6 nM. For the same compound, the IC50 [4] was under 31.6 nM, the IC50 [5] was under 31.6 nM and the IC50 [6] was under 31.6 nM. For the same compound, the viability, T/C [7] was 116%, the viability, T/C [8] was 79.8% and the viability, T/C [9] was 116%. The viability, T/C [10] was 101%, the viability, T/C [11] was 127% and the viability, T/C [12] was 0.2%. For the same compound, the viability, T/C [13] was 57.3%, the viability, T/C [14] was 58.6% and the viability, T/C [15] was 53.5%. It also gave a viability, T/C [16] of 68.6%, a viability, T/C [17] of 68.4% and a viability, T/C [18] of 0.17%. It also gave a viability, T/C [19] of 35.9%, a viability, T/C [20] of 33.5% and a viability, T/C [21] of 34.2%. The viability, T/C [22] was 28.8%, the viability, T/C [23] was 37.1% and the viability, T/C [24] was 0.14%. For the same compound, the viability, T/C [25] was 20.6%, the viability, T/C [26] was 26.6% and the viability, T/C [27] was 29.4%. It also gave a viability, T/C [28] of 22.3%, a viability, T/C [29] of 22.9% and a viability, T/C [30] of 0.13%. For the same compound, the viability, T/C [31] was 16.9%, the viability, T/C [32] was 19.2% and the viability, T/C [33] was 17.3%. The viability, T/C [34] was 17.1%, the viability, T/C [35] was 17.4% and the viability, T/C [36] was 0.17%. It also gave a viability, T/C [37] of 17.4%, a viability, T/C [38] of 18.9% and a viability, T/C [39] of 16.9%. It also gave a viability, T/C [40] of 16.4%, a viability, T/C [41] of 18.4% and a viability, T/C [42] of 0.23%.
